Data on eight substances can be found in patent EP4559927A1, “CARRIER PEPTIDE FRAGMENT AND USE THEREOF” (Toagosei Co., Ltd., priority 2022, dated 2025).

Primed or numbered codes have the meaning given here. FAM = 5(6)-carboxyfluorescein; FAM″ = C-terminal FAM dye

This assay has as its system NSC-34 cells. Description: Evaluation on cell membrane permeability by flow cytometry. The assay is classed as cell-based, mouse. To be noted: median fluorescence intensity of FAM (detector FL2), 25 µM construct, 0.42% DMSO, 20 hours at 37°C, 5% CO2. The protocol:
As the eukaryotic cells, NSC-34 cells (mouse motor neuron-like hybrid cell line) were used and the cell membrane permeability of the samples 1 to 7 was analyzed. In Examples 1 to 7, the prepared sample solutions 1 to 7 were used, respectively, and in Example 8, a FAM solution was used.
The NSC-34 cells were cultured in 10% fetal bovine serum (FBS)-containing Dulbecco's modified Eagle's medium (DMEM (Cat No. 044-29765, manufactured by FUJIFILM Wako Pure Chemical Corporation)), which is a normal culture medium.
The NSC-34 cells that adhered to a culture plate were cleaned with PBS and then, a 0.25%-trypsin/EDTA solution was added thereto, and incubation was performed for three minutes at 37°C. After the incubation, the aforementioned 10% FBS-containing DMEM was added to deactivate trypsin and then, five-minute centrifugal separation was performed at 150 × g to precipitate the cells. After the supernatant generated by the centrifugal separation was removed, the 10% FBS-containing DMEM was added to the precipitate (cell pellet) to prepare a cell suspension of about 2 × 10^5 cells/mL. The cell suspension was added by 1 mL to a well of a commercially available six-hole (well) plate (manufactured by AGC TECHNO GLASS Co., Ltd.) so as to seed the cell (about 2 × 10^5 cells/well). In addition, the 6 mM sample solution 1 was diluted with the 10% FBS-containing DMEM to prepare the sample solution 1 in which the concentration of the sample 1 was 50 µM. Then, 1 mL of the 50 µM sample solution 1 was added to the well (that is, so that the concentration of the sample 1 became 25 µM and the DMSO concentration became 0.42% in the culture solution in the well). After that, the cell was incubated for 20 hours at 37°C under a 5% CO2 condition.
After the 20-hour incubation, the culture supernatant was removed from the well and the cells in the well were cleaned twice with 1 mL of PBS. Next, 200 µL of the 0.25% trypsin/EDTA solution was added to the well and the incubation was performed for three minutes at 37°C. After the incubation, 400 µL of the 10% FBS-containing DMEM was added to the well to deactivate the trypsin. Subsequently, the cell suspension in the well was transferred to a tube and the cells were collected. After that, 600 µL of PBS was added further to the well to clean the well. Then, PBS in the well was transferred to the tube, so that the cells remaining in the well were collected in the tube. This tube was subjected to five-minute centrifugal separation at 4°C under a condition of 210 × g. After the centrifugal separation, the supernatant was removed and the precipitate (cell pellet) was suspended (cleaned) with 1 mL of PBS, which was followed by the centrifugal separation under the same condition as that described above. After this operation was repeated twice, the supernatant was removed and thus, the cells (cell pellet) cultured in a culture medium containing the sample 1 were obtained.
Regarding the obtained cells (cell pellet), the cell membrane permeability of the sample 1 was analyzed using a flow cytometer. As the flow cytometer, On-Chip Flowcytometer (manufactured by On-Chip Biotechnologies Co., LTD.) was used.
For such an analysis, the obtained cell pellet was suspended with 100 µL of on-chip T buffer to prepare a cell suspension for analysis.
Using the aforementioned flow cytometer, gating based on forward scatter (FSC) and side scatter (SSC) was performed to set a gate about a cell group to be analyzed, and the fluorescence intensity was measured about the cell group in this gate. Note that the analysis was performed so that the cell group contained at least 10000 cells or more. The fluorescence intensity was measured using a fluorescence detector FL2 of the flow cytometer (optimum detection wavelength around 543 nm) capable of detecting the fluorescence wavelength of FAM. […]
Substance “Ac-KKRTLRKDDEERKKR-FAM (Ac-KKRTLRKDDEERKKR-{FAM}) [Example 5]” gave an MFI of 14.8. To “Ac-KKRTLRKEDEDRKKR-FAM (Ac-KKRTLRKEDEDRKKR-{FAM″}) [Example 3]” belongs 13.8; to “Ac-KKRTLRKDERKKR-FAM (Ac-KKRTLRKDERKKR-{FAM}) [Example 1]”, 16.3. For the substance 5(6)-carboxyfluorescein [Example 8], the MFI turned out to be 11. To “Ac-KKRTLRKEDEDEDRKKR-FAM (Ac-KKRTLRKEDEDEDRKKR-{FAM}) [Example 7]” belongs 14.3; to “Ac-KKRTLRKEEDDRKKR-FAM (Ac-KKRTLRKEEDDRKKR-{FAM}) [Example 4]”, 14.3; to Ac-KKRTLRKDEDERKKR-FAM [Example 6], 15.2. In the case of “Ac-KKRTLRKEDRKKR-FAM (Ac-KKRTLRKEDRKKR-{FAM}) [Example 2]” it was 15.7.
